SMILES	melting point [°C]
c1ccc(OCCSCc2nnc(-c3ccc(OCCCN4CCCCCC4)cc3)o2)cc1 [Example 83, 1-(3-{4-[5-(2-phenoxy-ethylsulfanylmethyl)-[1,3,4]oxadiazol-2-yl]-phenoxy}-propyl)-azepane]	50
NCCCOc1ccc(-c2nnc(CSCCOc3ccccc3)o2)cc1 [Example 84, 3-{4-[5-(2-phenoxy-ethylsulfanylmethyl)-[1,3,4]oxadiazol-2-yl]-phenoxy}-propylamine]	30 to 35
CCN(CC)CCOc1ccc(-c2nnc(CSCCOc3ccccc3)o2)cc1 [Example 85, diethyl-(2-{4-[5-(2-phenoxy-ethylsulfanylmethyl)-[1,3,4]oxadiazol-2-yl]-phenoxy}-ethyl)-amine]	32 to 35
c1ccc(OCCSCc2nnc(-c3ccc(OCCN4CCCCCC4)cc3)o2)cc1 [Example 86, 1-(2-{4-[5-(2-phenoxy-ethylsulfanylmethyl)-[1,3,4]oxadiazol-2-yl]-phenoxy}-ethyl)-azepane]	40
c1ccc(OCCSCc2nnc(-c3ccc(OCCCN4CCOCC4)cc3)o2)cc1 [Example 87, 4-(3-{4-[5-(2-phenoxy-ethylsulfanylmethyl)-[1,3,4]oxadiazol-2-yl]-phenoxy}-propyl)-morpholine]	65
c1ccc(OCCSCc2nnc(-c3ccc(OCCCN4CCCC4)cc3)o2)cc1 [Example 88, 2-(2-phenoxy-ethylsulfanylmethyl)-5-[4-(3-pyrrolidin-1-yl-propoxy)-phenyl]-[1,3,4]oxadiazole]	70
c1ccc(OCCSCc2nnc(-c3ccc(OCCCCN4CCCCCC4)cc3)o2)cc1 [Example 89, 1-(4-{4-[5-(2-phenoxy-ethylsulfanylmethyl)-[1,3,4]oxadiazol-2-yl]-phenoxy}-butyl)-azepane]	35 to 38
c1ccc(OCCSCc2nnc(-c3ccc(OCCN4CCSCC4)cc3)o2)cc1 [Example 90, 4-(2-{4-[5-(2-phenoxy-ethylsulfanylmethyl)-[1,3,4]oxadiazol-2-yl]-phenoxy}-ethyl)-thiomorpholine]	60
c1ccc(OCCSCc2nnc(-c3ccc(OCCCCN4CCOCC4)cc3)o2)cc1 [Example 92, 4-(4-{4-[5-(2-phenoxy-ethylsulfanylmethyl)-[1,3,4]oxadiazol-2-yl]-phenoxy}-butyl)-morpholine]	64 to 67
CCN(CC)CCCCOc1ccc(-c2nnc(CSCCOc3ccccc3)o2)cc1 [Example 93, diethyl-(4-{4-[5-(2-phenoxy-ethylsulfanylmethyl)-[1,3,4]oxadiazol-2-yl]-phenoxy}-butyl)-amine]	35 to 38
c1ccc(OCCSCc2nnc(-c3ccc(OCCCCN4CCSCC4)cc3)o2)cc1 [Example 94, 4-(4-{4-[5-(2-phenoxy-ethylsulfanylmethyl)-[1,3,4]oxadiazol-2-yl]-phenoxy}-butyl)-thiomorpholine]	58
CN1CCCC1CCOc1ccc(-c2nnc(CSCCOc3ccccc3)o2)cc1 (stereo not shown) [Example 96, 2-{4-[2-(1-methyl-pyrrolidin-2-yl)-ethoxy]-phenyl}-5-(2-phenoxy-ethylsulfanylmethyl)-[1,3,4]oxadiazole]	46 to 50
CN1CCCC(Oc2ccc(-c3nnc(CSCCOc4ccccc4)o3)cc2)CC1 (stereo not shown) [Example 97, 1-methyl-4-{4-[5-(2-phenoxy-ethylsulfanylmethyl)-[1,3,4]oxadiazol-2-yl]-phenoxy}-azepane]	60 to 61
c1ccc(OCCSCc2nnc(-c3ccc(OCc4ccncc4)cc3)o2)cc1 [Example 98, 4-{4-[5-(2-phenoxy-ethylsulfanylmethyl)-[1,3,4]oxadiazol-2-yl]-phenoxymethyl}-pyridine]	80 to 90
c1ccc(OCCSCc2nnc(-c3ccc(OCc4ccccn4)cc3)o2)cc1 [Example 99, 2-{4-[5-(2-phenoxy-ethylsulfanylmethyl)-[1,3,4]oxadiazol-2-yl]-phenoxymethyl}-pyridine]	115
c1ccc(OCCSCc2nnc(-c3ccc(OCc4cccnc4)cc3)o2)cc1 [Example 100, 3-{4-[5-(2-phenoxy-ethylsulfanylmethyl)-[1,3,4]oxadiazol-2-yl]-phenoxymethyl}-pyridine]	111 to 112
NC(=O)Nc1ccc(-c2nnc(CSCCOc3ccccc3)o2)cc1 [Example 101, {4-[5-(2-phenoxy-ethylsulfanylmethyl)-[1,3,4]oxadiazol-2-yl]-phenyl}-urea]	> 220
O=C(Nc1ccc(-c2nnc(CSCCOc3ccccc3)o2)cc1)N1CCCC1 [Example 103, pyrrolidine-1-carboxylic acid {4-[5-(2-phenoxy-ethylsulfanylmethyl)-[1,3,4]oxadiazol-2-yl]-phenyl}-amide]	184 to 185
O=C(NCCN1CCCC1)Nc1ccc(-c2nnc(CSCCOc3ccccc3)o2)cc1.O=C(O)C(=O)O [Example 106, 1-{4-[5-(2-phenoxy-ethylsulfanylmethyl)-[1,3,4]oxadiazol-2-yl]-phenyl}-3-(2-pyrrolidin-1-yl-ethyl)-urea oxalate]	111 to 115

SMILES	melting point [°C]
O=C(NCCN1CCCCC1)Nc1ccc(-c2nnc(CSCCOc3ccccc3)o2)cc1 [Example 107, 1-{4-[5-(2-phenoxy-ethylsulfanylmethyl)-[1,3,4]oxadiazol-2-yl]-3-phenyl}-3-(2-piperidin-1-yl-ethyl)-urea]	126 to 128
Nc1ccc(-c2nnc(CSCCOc3ccccc3)o2)cc1 [Example 116, 4-[5-(2-phenoxy-ethylsulfanylmethyl)-[1,3,4]oxadiazol-2-yl]-phenylamine]	126 to 130
CN(C)CCNC(=S)Nc1ccc(-c2nnc(CSCCOc3ccccc3)o2)cc1 [Example 117, 1-(2-dimethylamino-ethyl)-3-{4-[5-(2-phenoxy-ethylsulfanylmethyl)-[1,3,4]oxadiazol-2-yl]-phenyl}-thiourea]	155 to 158
CN(C)CCCNC(=S)Nc1ccc(-c2nnc(CSCCOc3ccccc3)o2)cc1 [Example 118, 1-(3-dimethylamino-propyl)-3-{4-[5-(2-phenoxy-ethylsulfanylmethyl)-[1,3,4]oxadiazol-2-yl]-phenyl}-thiourea]	136 to 139
CN(C)CCCOc1ccc(-c2nnc(CSCCOc3ccccc3)n2Cc2ccccc2)cc1.O=C(O)C(=O)O [Example 246, (3-{4-[4-benzyl-5-(2-phenoxyethylsulfanylmethyl)-4H-[1,2,4]triazol-3-yl]-phenoxy}-propyl)-dimethyl-amine, oxalic acid salt]	88 to 92
CN(C)CCCOc1ccc(-c2nnc(CSCCOc3ccccc3)n2-c2ccccc2)cc1.O=C(O)C(=O)O [Example 247, Dimethyl-(3-{4-[5-(2-phenoxy-ethylsulfanylmethyl)-4-phenyl-4H-[1,2,4]triazol-3-yl]-phenoxy}-propyl)-amine, oxalic acid salt]	120 to 123
CN(C)CCCOc1ccc(-c2nnc(-c3ccc(Oc4ccccc4)cc3)o2)cc1 [Example 248, Dimethyl-(3-{4-[5-(4-phenoxy-phenyl)-[1,3,4]oxadiazol-2-yl]-phenoxy}-propyl)-amine]	95
CN(C)CCNC(=O)Nc1ccc(-c2cnc(CSCCOc3ccccc3)o2)cc1.O=C(O)/C=C\C(=O)O [Example 250, 1-(2-Dimethylamino-ethyl)-3-{4-[2-(2-phenoxy-ethylsulfanylmethyl)-oxazol-5-yl]-phenyl}-urea maleate]	105 to 107
O=C(NCCN1CCCCC1)Nc1ccc(-c2cnc(CSCCOc3ccccc3)o2)cc1 [Example 252]	84 to 87
CN(C)CCNC(=O)Nc1ccc(-c2cnc(COCc3cc4ccccc4o3)o2)cc1 [Example 254, 1-{4-[2-(benzofuran-2-ylmethoxymethyl)-oxazol-5-yl]-phenyl}-3-(2-dimethylamino-ethyl)-urea]	150 to 154
O=C(NCCN1CCCC1)Nc1ccc(-c2cnc(COCc3cc4ccccc4o3)o2)cc1 [Example 255, 1-{4-[2-(Benzofuran-2-ylmethoxymethyl)-oxazol-5-yl]-phenyl}-3-(2-pyrrolidin-1-yl-ethyl)-urea]	124 to 126
O=C(NCCN1CCCCC1)Nc1ccc(-c2cnc(COCc3cc4ccccc4o3)o2)cc1 [Example 256, 1-{4-[2-(benzofuran-2-ylmethoxymethyl)-oxazol-5-yl]-phenyl}-3-(2-piperidin-1-yl-ethyl)-urea]	102 to 104
O=C1N(CCN2CCCC2)CCN1c1ccc(-c2nnc(CSCCOc3ccccc3)o2)cc1 [Example 257, 1-{4-[5-(2-phenoxy-ethylsulfanylmethyl)-[1,3,4]oxadiazol-2-yl]-phenyl}-3-(2-pyrrolidin-1-yl-ethyl)-imidazolidin-2-one]	125 to 129
CN(C)CCNc1ccc(-c2nnc(CSCCOc3ccccc3)o2)cn1 [Example 258, N,N-dimethyl-M-{5-[5-(2-phenoxy-ethylsulfanylmethyl)-[1,3,4]oxadiazol-2-yl]-pyridin-2-yl}-ethane-1,2-diamine]	97 to 98
CN(C)CCCNc1ccc(-c2nnc(CSCCOc3ccccc3)o2)cn1 [Example 259, N,N-Dimethyl-N′-{5-[5-(2-phenoxy-ethylsulfanylmethyl)-[1,3,4]oxadiazol-2-yl]-pyridin-2-yl}-propane-1,3-diamine]	94 to 96
O=C1CCN(CCCOc2ccc(-c3nnc(CSCCOc4ccccc4)o3)cc2)CC1 [Example 260, 1-(3-{4-[5-(2-Phenoxy-ethylsulfanylmethyl)-[1,3,4]oxadiazol-2-yl]-phenoxy}-propyl)-piperidin-4-one]	55 to 57
CC(C)N(CCCOc1ccc(-c2nnc(CSCCOc3ccccc3)o2)cc1)C(C)C [Example 261, diisopropyl-(3-{4-[5-(2-phenoxy-ethylsulfanylmethyl)-[1,3,4]oxadiazol-2-yl]-phenoxy}-propyl)-amine]	30 to 33
CC(C)N(CCCCOc1ccc(-c2nnc(CSCCOc3ccccc3)o2)cc1)C(C)C [Example 262, diisopropyl-(4-{4-[5-(2-phenoxy-ethylsulfanylmethyl)-[1,3,4]oxadiazol-2-yl]-phenoxy}-butyl)-amine]	42 to 44
